The results in this text go back to US8586739B2, “Heterocyclic compounds and their uses” (Amgen Inc., priority 2007, dated 2013).

The test system of the first assay is human B cells. Briefly: Human B cells proliferation stimulated by anti-IgM (3H thymidine). Particulars: Homo sapiens, B-cell, 72 h, purified human B cells, anti-Human IgM + CD40L-LZ. It is filed as cell-based. On the procedure:
Human B Cells Proliferation stimulate by anti-IgM
Isolate PBMCs from Leukopac or from human fresh blood. Isolate human B cells by using Miltenyi protocol and B cell isolation kit II.—human B cells were Purified by using autoMACS® column.
Activation of Human B Cells
Use 96 well Flat bottom plate, plate 50000/well purified B cells in B cell proffer-ation medium (DMEM+5% FCS, 10 mM Hepes, 50 μM 2-mercaptoethanol); 150 μL medium contain 250 ng/mL CD40L-LZ recombinant protein (Amgen) and 2 μg/mL anti-Human IgM antibody (Jackson ImmunoReseach Lab.#109-006-129), mixed with 50 μL B cell medium containing PI3K inhibitors and incubate 72 h at 37° C. incubator. After 72 h, pulse labeling B cells with 0.5-1 uCi/well ^3H thymidine for overnight ˜18 h, and harvest cell using TOM harvester.
Turning to `Fc1ccc(F)c(-c2nc3c(Cl)cccc3cc2CNc2ncnc3[nH]cnc23)c1` [N-((8-chloro-2-(2,5-difluorophenyl)-3-quinolinyl)methyl)-9H-purin-6-amine], the IC50 was 38.2 nM. Same read-out and setting: under `C[C@H](Nc1ncnc2[nH]cnc12)c1cc2cccc(Cl)c2nc1-c1cc(F)ccc1OCc1ccccc1` [N-((1S)-1-(2-(2-(benzyloxy)-5-fluorophenyl)-8-chloro-3-quinolinyl)ethyl)-9H-purin-6-amine] stands 16.8 nM; under `C[C@H](Nc1ncnc2nc[nH]c12)c1cc2cccc(F)c2nc1-c1cc(F)cc(F)c1` [N-((1S)-1-(2-(3,5-difluorophenyl)-8-fluoro-3-quinolinyl)ethyl)-7H-purin-6-amine], 7.07 nM; under `Clc1ccccc1-c1nc2c(Cl)cccc2cc1CNc1ccnc2[nH]cnc12` [N-((8-chloro-2-(2-chlorophenyl)-3-quinolinyl)methyl)-3H-imidazo[4,5-b]pyridin-7-amine], 361 nM. On the same count and under the same terms, under `OC1CCCN(c2nc3c(Cl)cccc3cc2CNc2ncnc3[nH]cnc23)C1` (centres unmarked) [1-(8-chloro-3-((9H-purin-6-ylamino)methyl)-2-quinolinyl)-3-piperidinol] stands 98.8 nM. Still for that read-out and setting: under `C[C@H](Nc1ncnc2[nH]cnc12)c1cc2cccc(C#N)c2nc1-c1cccc(F)c1` [2-(3-fluorophenyl)-3-((1S)-1-(9H-purin-6-ylamino)ethyl)-8-quinolinecarbonitrile] stands 3.38 nM; under `C[C@H](Nc1ncnc2[nH]cnc12)c1cc2cccc(Cl)c2nc1-c1ccccc1F` [N-((1S)-1-(8-chloro-2-(2-fluorophenyl)-3-quinolinyl)ethyl)-9H-purin-6-amine], 3.56 nM; under `Cc1cccc2nc(CNc3ncnc4ccsc34)c(-c3ccccc3Cl)nc12` [N-((3-(2-chlorophenyl)-5-methyl-2-quinoxalinyl)methyl)thieno[3,2-d]pyrimidin-4-amine], 194 nM. As for `C[C@H](Nc1ncnc2[nH]cnc12)c1cc2cccc(Cl)c2nc1-c1ncccn1` [N-((1S)-1-(8-chloro-2-(2-pyrimidinyl)-3-quinolinyl)ethyl)-9H-purin-6-amine], the IC50 was found to be 90.4 nM. On the same count and under the same terms, under `C[C@H](Nc1ncnc2nc[nH]c12)c1cc2cccc(F)c2nc1-c1cc(F)cc(Cl)c1` [N-((1S)-1-(2-(3-chloro-5-fluorophenyl)-8-fluoro-3-quinolinyl)ethyl)-7H-purin-6-amine] stands 8.09 nM; under `Fc1cccc(-c2nc3c(Cl)cccc3cc2CNc2ncnc3[nH]cnc23)c1` [N-((8-chloro-2-(3-fluorophenyl)-3-quinolinyl)methyl)-9H-purin-6-amine], 27.5 nM. As to `Fc1ccc(Cl)c(-c2nc3c(Cl)cccc3nc2CNc2ncnc3[nH]cnc23)c1` [N-((5-Chloro-3-(2-chloro-5-fluorophenyl)quinoxalin-2-yl)methyl)-9H-purin-6-amine], the IC50 is 165 nM.

Take `OCC[C@H](Nc1ncnc2[nH]cnc12)c1cc2cccc(Cl)c2nc1-c1ccccc1Cl` [(3S)-3-(8-chloro-2-(2-chlorophenyl)-3-quinolinyl)-3-(9H-purin-6-ylamino)-1-propanol]: the IC50 worked out at 13.1 nM. The same measure, in the same setting: the same measure for `C[C@H](Nc1ncnc2[nH]cnc12)c1cc2cccc(-c3ccccc3)c2nc1-c1ccccc1` [N-((1S)-1-(2,8-diphenyl-3-quinolinyl)ethyl)-9H-purin-6-amine]: 18.8 nM.

Take `CC[C@H](Nc1ncnc2[nH]cnc12)c1cc2cccc(Cl)c2nc1-c1cccc(F)c1` [N-((1S)-1-(8-chloro-2-(3-fluorophenyl)-3-quinolinyl)propyl)-9H-purin-6-amine]: the concentration for half-maximal inhibition (IC50) turned out to be 5.3 nM. Regarding `CCc1ncc(F)cc1-c1nc2c(Cl)cccc2cc1[C@H](C)Nc1ncnc2[nH]cnc12` [N-((1S)-1-(8-chloro-2-(2-ethyl-5-fluoro-3-pyridinyl)-3-quinolinyl)ethyl)-9H-purin-6-amine], the IC50 was 3.84 nM. Still for that read-out and setting: under `C[C@H](Nc1ncnc2[nH]cnc12)c1cc2cccc(Cl)c2nc1-c1cccc(F)n1` [N-((1S)-1-(8-chloro-2-(6-fluoro-2-pyridinyl)-3-quinolinyl)ethyl)-9H-purin-6-amine] stands 3.1 nM; under `C[C@H](Nc1ncnc2[nH]cnc12)c1cc2ccc(F)cc2nc1-c1cccnc1` [N-((1S)-1-(7-fluoro-2-(3-pyridinyl)-3-quinolinyl)ethyl)-9H-purin-6-amine], 12.2 nM. For `CC(C)c1ccccc1-c1nc2c(Cl)cccc2cc1CNc1ncnc2[nH]cnc12` [N-((8-chloro-2-(2-(1-methylethyl)phenyl)-3-quinolinyl)methyl)-9H-purin-6-amine], the IC50 came out at 17.6 nM. The same measure, in the same setting: the same measure for `Clc1cccc2cc(CNc3ncnc4[nH]cnc34)c(-c3ccccc3-c3nn[nH]n3)nc12` [N-((8-chloro-2-(2-(2H-tetrazol-5-yl)phenyl)-3-quinolinyl)methyl)-9H-purin-6-amine]: 9710 nM. Still for that read-out and setting: the same measure for `Clc1cccc(-c2nc3c(Cl)cccc3cc2CNc2ncnc3[nH]cnc23)c1` [N-((8-chloro-2-(3-chlorophenyl)-3-quinolinyl)methyl)-9H-purin-6-amine]: 411 nM; for `Clc1cccc2cc(CNc3ncnc4[nH]cnc34)c(-c3ccccn3)nc12` [N-((8-chloro-2-(2-pyridinyl)-3-quinolinyl)methyl)-9H-purin-6-amine]: 34.1 nM; for `CC(Oc1ccc(F)cc1-c1nc2c(Cl)cccc2cc1CNc1ncnc2[nH]cnc12)c1ccccc1` (centres unmarked) [N-((8-chloro-2-(5-fluoro-2-(1-phenylethoxy)phenyl)-3-quinolinyl)methyl)-9H-purin-6-amine]: 565 nM. Still for that read-out and setting: the same measure for `C[C@H](Nc1ncnc2[nH]cnc12)c1cc2cccc(F)c2nc1-c1ccccc1` [(S)—N-(1-(8-fluoro-2-phenylquinolin-3-yl)ethyl)-9H-purin-6-amine]: 1.42 nM; for `C[C@@H](Nc1ncnc2[nH]cnc12)c1cc2c(Cl)cccc2nc1-c1cccc(F)c1` [N-((R)-1-(5-Chloro-2-(3-fluorophenyl)quinolin-3-yl)ethyl)-9H-purin-6-amine]: 33.6 nM; for `C[C@H](Nc1ncnc2[nH]cnc12)c1cc2cccc(Cl)c2nc1-n1ccc(C(F)(F)F)n1` [N-((1S)-1-(8-chloro-2-(3-(trifluoromethyl)-1H-pyrazol-1-yl)-3-quinolinyl)ethyl)-9H-purin-6-amine]: 449 nM. For the molecule `Cc1ncccc1-c1nc2c(Cl)cccc2cc1CNc1ncnc2[nH]cnc12` [N-((8-chloro-2-(2-methyl-3-pyridinyl)-3-quinolinyl)methyl)-9H-purin-6-amine], the IC50 was 13.4 nM. Same read-out and setting: the same measure for `CC(C)c1cccc(-c2nc3c(Cl)cccc3cc2CNc2ncnc3[nH]cnc23)c1` [N-((8-chloro-2-(3-(1-methylethyl)phenyl)-3-quinolinyl)methyl)-9H-purin-6-amine]: 305 nM; for `CS(=O)(=O)c1ccccc1-c1nc2c(Cl)cccc2cc1CNc1ncnc2[nH]cnc12` [N-((8-chloro-2-(2-(methylsulfonyl)phenyl)-3-quinolinyl)methyl)-9H-purin-6-amine]: 151 nM; for `C[C@@H](Nc1ncnc2[nH]cnc12)c1nc2cccc(Cl)c2cc1-c1cccc(F)c1` [N-((1R)-1-(5-chloro-3-(3-fluorophenyl)-2-quinolinyl)ethyl)-9H-purin-6-amine]: 21 nM.

As for `C[C@H](Nc1ncnc2[nH]cnc12)c1cc2ccc(F)cc2nc1-c1cc(F)ccc1Cl` [N-((1S)-1-(2-(2-chloro-5-fluorophenyl)-7-fluoro-3-quinolinyl)ethyl)-9H-purin-6-amine], the IC50 was 20 nM. Still for that read-out and setting: under `Fc1cccc(-c2cc3c(Cl)cccc3nc2CNc2ncnc3[nH]cnc23)c1` [N-((5-chloro-3-(3-fluorophenyl)-2-quinolinyl)methyl)-9H-purin-6-amine] stands 130 nM; under `Fc1cccc2cc(CNc3ncnc4nc[nH]c34)c(-c3ccccc3)nc12` [N-((8-fluoro-2-phenyl-3-quinolinyl)methyl)-7H-purin-6-amine], 240 nM. Same read-out and setting: the same measure for `C[C@H](Nc1ncnc2[nH]cnc12)c1cc2cccc(Cl)c2nc1-c1ccccn1` [N-((1S)-1-(8-chloro-2-(2-pyridinyl)-3-quinolinyl)ethyl)-9H-purin-6-amine]: 3.24 nM; for `COc1ccc(F)cc1-c1nc2c(Cl)cccc2cc1CNc1ncnc2[nH]cnc12` [N-((8-chloro-2-(5-fluoro-2-methoxyphenyl)-3-quinolinyl)methyl)-9H-purin-6-amine]: 27.4 nM. The same measure, in the same setting: under `C[C@H](Nc1ncnc2[nH]cnc12)c1nc2cccc(Cl)c2nc1-c1cccc(F)c1` [N-((S)-1-(5-Chloro-3-(3-fluorophenyl)quinoxalin-2-yl)ethyl)-9H-purin-6-amine] stands 8.55 nM. For `Fc1ccc(OCc2cccnc2)c(-c2nc3c(Cl)cccc3cc2CNc2ncnc3[nH]cnc23)c1` [N-((8-chloro-2-(5-fluoro-2-(3-pyridinylmethoxy)phenyl)-3-quinolinyl)methyl)-9H-purin-6-amine], the IC50 was 178 nM. Still for that read-out and setting: under `FC(F)(F)c1ccncc1-c1nc2c(Cl)cccc2cc1CNc1ncnc2[nH]cnc12` [N-((8-chloro-2-(4-(trifluoromethyl)-3-pyridinyl)-3-quinolinyl)methyl)-9H-purin-6-amine] stands 69.5 nM. Still for that read-out and setting: under `Fc1cccc2nc(-c3ccccc3Cl)c(CNc3ncnc4[nH]cnc34)nc12` [N-((3-(2-Chlorophenyl)-8-fluoroquinoxalin-2-yl)methyl)-9H-purin-6-amine] stands 177 nM.

Still in this assay, the particulars now being: Homo sapiens, B-cell, purified human B cells, anti-Human IgM + CD40L-LZ, 72 h.
As for `C[C@H](Nc1ncnc2[nH]cnc12)c1cc2cccc(Cl)c2nc1-c1ccccc1F` [N-((1S)-1-(8-chloro-2-(2-fluorophenyl)-3-quinolinyl)ethyl)-9H-purin-6-amine], the IC50 came out at 3.56 nM.

The assay is the same for the next values; noted with them: purified human B cells, anti-Human IgM + CD40L-LZ, 72 h.
As for `Cc1cccnc1-c1nc2c(Cl)cccc2cc1CNc1ncnc2[nH]cnc12` [N-((8-chloro-2-(3-methyl-2-pyridinyl)-3-quinolinyOmethyl)-9H-purin-6-amine], the IC50 worked out at 79 nM.

As a reminder, the IC50 is the point on the concentration scale where inhibition reaches its midpoint.
